Measured values published in US6387912B1, “Utilization of pyrimidine derivatives for preventing and treating cerebral ischaemia” (BASF Aktiengesellschaft, priority 1999, dated 2002).
Where a name gives a salt, the structure may show the parent alone.

Question: Which melting point does the source give for `Cc1c(C(=O)N(C)C)sc2ncn(CCN3CCN(c4cccc(C(F)(F)F)c4)CC3)c(=O)c12` [Example 7, 3,4-Dihydro-5-methyl-6-dimethylcarbamoyl-3-[2-(4-(3-trifluoromethylphenyl)piperazin-1-yl)ethyl]thieno[2,3-d]-pyrimidin-4-one] here?
Answer: 146 °C

Question: For `CN1CCc2c(sc3ncn(CCN4CCN(c5nccc(C(F)(F)F)n5)CC4)c(=O)c23)C1` [Example 127, 3,4,5,6,7,8-Hexahydro-7-methyl-3-[2-(4-(4-trifluoromethyl-pyrimidin-2-yl)piperazin-1-yl)ethyl]pyrido[4′,3′:4,5]-thieno[2,3-d]pyrimidin-4-one], which melting point is on record?
Answer: 291 to 292 °C

Question: With `Cc1cccc(N2CCN(CCn3cnc4sc5c(c4c3=O)CCN(C)C5)CC2)n1` [Example 126, 3,4,5,6,7,8-Hexahydro-7-methyl-3-[2-(4-(6-methylpyridin-2-yl)piperazin-1-yl)ethyl]pyrido[4′,3′:4,5]thieno[2,3-d]-pyrimidin-4-one] as the molecule, how does the melting point read?
Answer: 138 to 140 °C

Question: With `CN1CCc2c(sc3ncn(CCN4CCN(c5ccccc5C#N)CC4)c(=O)c23)C1` [Example 68, 3,4,5,6,7,8-Hexahydro-7-methyl-3-[2-(4-(2-cyanophenyl)-piperazin-1-yl)ethyl]pyrido[4′,3′:4,5]thieno[2,3-d]-pyrimidin-4-one] as the molecule, how does the melting point read?
Answer: 162 to 164 °C

Question: For `CN1CCc2c(sc3ncn(CCN4CCN(c5ccc6ccccc6c5)CC4)c(=O)c23)C1` [Example 73, 3,4,5,6,7,8-Hexahydro-7-methyl-3-[2-(4-naphth-2-ylpiperazin-1-yl)ethyl]pyrido[4′,3′:4,5]thieno[2,3-d]pyrimidin-4-one], which melting point is on record?
Answer: 140 to 141 °C

Question: For `CN1CCc2c(sc3ncn(CCN4CCN(c5ccc6ccccc6n5)CC4)c(=O)c23)C1` [Example 65, 3,4,5,6,7,8-Hexahydro-7-methyl-3-[2-(4-quinolin-2-yl-piperazin-1-yl)ethyl]pyrido[4′,3′:4,5]thieno[2,3-d]-pyrimidin-4-one], which melting point is on record?
Answer: 143 to 145 °C

Question: Which melting point does the source give for `Cc1c(C(=O)N(C)C)sc2ncn(CCN3CCN(c4ncnc5ccccc45)CC3)c(=O)c12` (as salt: hydrochloride) [Example 29, 3,4-Dihydro-5-methyl-6-dimethylcarbamoyl-3-[2-(4-quinazolin-4-ylpiperazin-1-yl)ethyl]thieno[2,3-d]pyrimidin-4-one] here?
Answer: 295 to 300 °C

Question: With `Cc1ccc2ccccc2c1N1CCN(CCn2cnc3sc(C(=O)N(C)C)c(C)c3c2=O)CC1` [Example 4, 3,4-Dihydro-5-methyl-6-dimethylcarbamoyl-3-[2-(4-(2-methyl-1-naphthyl)piperazin-1-yl)ethyl]-thieno[2,3-d]pyrimidin-4-one] as the molecule, how does the melting point read?
Answer: 178 to 180 °C

Question: For `COc1ccccc1N1CCN(CCCn2cnc3sc4c(c3c2=O)CCN(Cc2ccccc2)C4)CC1` [Example 18, 3,4,5,6,7,8-Hexahydro-7-benzyl-3-[3-(4-(2-methoxyphenyl)-piperazin-1-yl)propyl]pyrido[4′,3′:4,5]thieno[2,3-d]-pyrimidin-4-one], which melting point is on record?
Answer: 66 to 67 °C

Question: For `CCOC(=O)N1Cc2sc3ncn(CC(C)N4CCN(c5ccccc5Cl)CC4)c(=O)c3c2C1` (stereo not shown) [Example 39, 3,4,5,7-Tetrahydro-6-carboethoxy-3-[2-(4-(2-chlorophenyl)-piperazin-1-yl)propyl]pyrrolo[3′,4′:4,5]thieno-[2,3-d]pyrimidin-4-one], which melting point is on record?
Answer: 172 °C

Question: For `COc1ccc(N2CCN(CCn3cnc4sc(C(=O)N(C)C)c(C)c4c3=O)CC2)c(OC)c1` [Example 30, 3,4-Dihydro-5-methyl-6-dimethylcarbamoyl-3-[2-(4-(2,4-dimethoxyphenyl)piperazin-1-yl)ethyl]thieno-[2,3-d]pyrimidin-4-one], which melting point is on record?
Answer: 170 to 171 °C

Question: For `Cc1ccc(N2CCN(CCn3cnc4sc5c(c4c3=O)CCN(C)C5)CC2)c2ccccc12` [Example 138, 3,4,5,6,7,8-Hexahydro-7-methyl-3-[2-(4-(4-methylnaphth-1-yl)piperazin-1-yl)ethyl]pyrido[4′,3′:4,5]thieno[2,3-d]-pyrimidin-4-one], which melting point is on record?
Answer: 139 to 141 °C

Question: Which melting point does the source give for `COc1ccccc1N1CCN(CCn2cnc3sc4c(c3c2=O)CCNC4)CC1` [Example 115, 3,4,5,6,7,8-Hexahydro-3-[2-(4-(2-methoxyphenyl)-piperazin-1-yl)ethyl]pyrido[4′,3′:4,5]thieno[2,3-d]pyrimidin-4-one] here?
Answer: 168 to 170 °C
